# Test results from patent US6087379A, “Cyclic amine derivatives” (Sankyo Company, Limited, priority 1996, dated 2000).
# Where a name gives a salt, the structure may show the parent alone.
# Key:
# male ICR mice = experiment: Test 1: Prolongation of Bleeding Time in Mice; assay type: in vivo, mouse (ICR); conditions: oral, 3 days (48, 24 and 4 hours before), ratio test compound-treated to control, cut-off 300 seconds
# Method: Prolongation of Bleeding Time in Mice Groups of 10 male ICR mice (Charles River Japan Inc.) were used in the experiment. Test compound suspended in 5% gum arabic solution was orally administered for 3 days (48, 24 and 4 hours before the experiment). Each mouse was placed in a retainer, and the tail was transected at 5 mm from the tip, and then the tail (2 cm) was immersed in saline solution warmed at 37° C. Bleeding time was defined as the interval between the time of transection until bleeding stopped over a 15 seconds period. Bleeding times beyond 5 minutes were recorded as 5 minutes (300 seconds). Results were expressed as ratios of bleeding times of test compound-treated to non-treated (control) groups in which mice received 5% gum arabic solution.
# platelet aggregation = experiment: Test 2: Antiaggregatory Action in Rats (ex vivo platelet aggregation in citrated blood, ADP or collagen); conditions: Rattus norvegicus, oral, 4 hours before, female SD rats, induced by ADP or collagen (which one not given)
# Method: Antiaggregatory Action in Rats
# Groups of 4 female SD rats (Charles River Japan Inc.) were used in the experiment Test compound suspended in 5% gum arabic solution was orally administered to rats 4 hours before the experiment. Control rats received 5% gum farabic solution. Platelet aggregation was measured according to the method of P. Lumley and P. P. A. Humphrey (J. Pharmacol. Methods, 6, 153-166 (1981)) with a slight modification. Blood (5.4 ml) was collected from the abdominal aorta of anesthetized rats using 3.8% (w/v) sodium citrate solution (0.6 ml) as an anticoagulant. An aliquot of citrated blood (1.2 ml) added to the cuvette was stirred (1000 rpm) at 37° C. Two minutes later, blood (0.3 ml) was taken from the cuvette, and the number of platelets was measured by an automatic hematology analyzer (E-4000, Toa Iyo Denshi), which was designated as the pre-aggregation number of platelets. To the remaining blood (0.9 ml) in the cuvette were added 0.1 ml of 0.05 mM adenosine-5'-diphosphate (ADP) or 0.06 mg/ml collagen to induce platelet aggregation. Two minutes after the addition of ADP or 4 minutes after the addition of collagen, blood (0.3 ml) was taken from the cuvette, and the number of platelets was measured, which was designated as the post-aggregation number of platelets. Platelet aggregation (%) was determined by the following equation:
# 100×(pre-aggregation number of platelets-post-aggregation number of
# platelets)/pre-aggregation number of platelets
# Antiaggregatory action of the test compound was determined comparing platelet aggregation of test compound-treated rats to that of control rats (without administration of test compound).
# Human Platelets = experiment: Test 3: Antiaggregatory Action in Human Platelets (PRP, ADP-induced aggregation); assay type: cell-based; conditions: Platelet, 37° C.; for inhibition at 10 µg/mL: 10 μg/ml; for inhibition at 30 µg/mL: 30 μg/ml
# Method: Antiaggregatory Action in Human Platelets
# Platelet aggregation was measured using an automatic platelet aggregometer (PAM-8C, Mebanix) by the method of G.V.R. Born (Nature, 194, 927-929 (1962)) with a slight modification. Blood was collected from the antecubital vein of healthy volunteers who had not taken any medications for 2 weeks using 3.8% sodium citrate as an anticoagulant (1/9 volume of blood). Platelet-rich plasma (PRP) was obtained by centrifugation (CR5DL, Hitachi) at 200×g for 15 minutes at room temperature. Platelet-poor plasma (PPP) was obtained by further centrifugation of the remained blood at 2000×g for 10 minutes at room temperature. The number of platelets in PRP was measured by an automatic hematology analyzer (K-1000, Toa Iyo Denshi), and adjusted to 3×10^8 /ml using PPP. PRP prepared as described above was used for the platelet aggregation experiment. PRP (0.24 ml) was added to the cuvette and set in the platelet aggregometer. After pre-incubation for 1.5 minutes at 37° C., 0.01 ml of 0.25 mM ADP were added to the cuvette to initiate platelet aggregation. Platelet aggregation was monitored for 10 minutes.
# Antiaggregatory action of test compound was expressed as inhibition (%) of aggregation comparing platelet aggregation of test compound to that of control (without addition of test compound).
Structure (SMILES),bleeding time extending ratio (male ICR mice; 10 mg/kg),bleeding time extending ratio (male ICR mice; 30 mg/kg),inhibition at 10 mg/kg (platelet aggregation),inhibition at 30 mg/kg (platelet aggregation),inhibition at 10 µg/mL (Human Platelets),inhibition at 30 µg/mL (Human Platelets)
"CCOC(=O)/C=C1\CN(C(C(=O)OC)c2ccccc2Cl)CCC1SC(C)=O (stereo not drawn) [Example 13, (E)-4-Acetylthio-1-(2-chloro-α-methoxycarbonylbenzyl)-3-ethoxycarbonylmethylidenepiperidine]",> 2.75,> 2.75,,,,
"CC(=O)SC1CCN(C(C(=O)C2CC2)c2ccccc2F)C/C1=C\C(=O)N(C)C (stereo not drawn) [Example 15(a), (E)-4-Acetylthio-1-(α-cyclopropylcarbonyl-2-fluorobenzyl)-3-(N,N-dimethylcarbamoyl)methylidenepiperidine]",2.53,> 2.75,18.6%,95.9%,,
"O=C(O)/C=C1/CN(C(C(=O)C2CC2)c2ccccc2F)CCC1S (stereo not drawn) [Example 12, (Z)-1-(α-Cyclopropylcarbonyl-2-fluorobenzyl)-3-carboxymethylidene-4-mercaptopiperidine trifluoroacetate]",,,,,41.2%,68.9%
"CCOC(=O)/C=C1\CN(C(C(=O)C2CC2)c2ccccc2F)CCC1SC(C)=O (stereo not drawn) [Example 10(a), (E)-4-Acetylthio-1-(α-cyclopropylcarbonyl-2-fluorobenzyl)-3-ethoxycarbonylmethylidenepiperidine]",> 2.75,> 2.75,88.6%,97.2%,,
"COC(=O)C(c1ccccc1F)N1CCC(SC(=O)c2ccccc2)CC1 (stereo not drawn) [Example 28, 4-Benzoylthio-1-(2-fluoro-α-methoxycarbonylbenzyl)piperidine]",1.24,2.16,,39.6%,,
"CC(=O)SC1CCN(C(C(=O)C2CC2)c2ccccc2F)CC1 (stereo not drawn) [Example 1(a), 4-Acetylthio-1-(α-cyclopropylcarbonyl-2-fluorobenzyl)piperidine]",1.06,2.06,5.7%,23.3%,,
"CCCC(=O)SC1CCN(C(C(=O)C2CC2)c2ccccc2F)CC1 (stereo not drawn) [Example 18, 4-Butyrylthio-1-(α-cyclopropylcarbonyl-2-fluorobenzyl)piperidine]",1.45,2.57,,18.3%,,
"Cl.O=C(C1CC1)C(c1ccccc1F)N1CCC(S)CC1 (stereo not drawn) [Example 1(b), 1-(α-Cyclopropylcarbonyl-2-fluorobenzyl)-4-mercaptopiperidine hydrochloride]",,1.46,,,48.6%,70.6%
